Common to all, as to experiment: cryo-EM structure of intact phycobilisome, […] Å
Format in all cases: binding

The target in experiment [1] is T1, ApcB (Synechococcus 7002) (Picosynechococcus sp. PCC 7002, UniProt O68970).
T1 construct: native, within intact phycobilisome purified from cells; mildly glutaraldehyde cross-linked
T1 sequence (O68970 1-161): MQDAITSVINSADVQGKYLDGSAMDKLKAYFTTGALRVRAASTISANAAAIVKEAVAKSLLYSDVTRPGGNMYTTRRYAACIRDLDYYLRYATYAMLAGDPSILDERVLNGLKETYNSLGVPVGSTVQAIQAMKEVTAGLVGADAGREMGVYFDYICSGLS
The following applies: covalent; native chromophore.

The target in experiment [2] is T2, ApcF (Synechococcus 7002) (Picosynechococcus sp. PCC 7002, UniProt O68967).
T2 construct: native, within intact phycobilisome purified from cells; mildly glutaraldehyde cross-linked; trimer A3
The conditions noted are these: covalent; native chromophore.

The target in experiment [3] is T3, ApcE (LCM), Synechococcus 7002 (Picosynechococcus sp. PCC 7002, UniProt O68973).
T3 construct: native, within intact phycobilisome; N-terminal alpha-LCM domain holds the bilin; three REP domains
T3 sequence (O68973 1-886): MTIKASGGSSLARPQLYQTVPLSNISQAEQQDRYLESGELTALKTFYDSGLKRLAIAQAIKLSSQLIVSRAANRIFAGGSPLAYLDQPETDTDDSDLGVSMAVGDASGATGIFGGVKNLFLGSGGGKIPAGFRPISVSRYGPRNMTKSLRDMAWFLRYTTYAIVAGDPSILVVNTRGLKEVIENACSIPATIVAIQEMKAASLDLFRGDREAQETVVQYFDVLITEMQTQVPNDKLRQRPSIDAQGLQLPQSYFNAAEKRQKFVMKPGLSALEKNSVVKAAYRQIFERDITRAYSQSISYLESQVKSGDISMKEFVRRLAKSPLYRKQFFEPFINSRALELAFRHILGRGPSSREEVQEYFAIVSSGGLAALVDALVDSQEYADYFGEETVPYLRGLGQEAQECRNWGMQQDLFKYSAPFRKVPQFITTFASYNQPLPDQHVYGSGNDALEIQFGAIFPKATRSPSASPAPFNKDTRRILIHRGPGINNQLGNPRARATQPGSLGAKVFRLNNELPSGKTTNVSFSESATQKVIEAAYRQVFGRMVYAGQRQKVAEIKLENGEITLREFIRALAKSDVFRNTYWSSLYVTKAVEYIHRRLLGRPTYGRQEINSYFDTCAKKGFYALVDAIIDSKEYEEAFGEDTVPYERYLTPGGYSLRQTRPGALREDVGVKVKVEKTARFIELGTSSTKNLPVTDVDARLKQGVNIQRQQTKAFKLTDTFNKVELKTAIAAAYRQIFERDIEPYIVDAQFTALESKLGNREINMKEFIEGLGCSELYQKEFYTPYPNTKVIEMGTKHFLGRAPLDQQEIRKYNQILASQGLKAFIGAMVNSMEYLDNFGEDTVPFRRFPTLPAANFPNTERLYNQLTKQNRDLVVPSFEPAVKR
The conditions noted are these: covalent; native chromophore; in alpha-LCM domain.

Experiment [4] has as its target T4, ApcA (Synechococcus 7002) (Picosynechococcus sp. PCC 7002, UniProt B1XQM2).
T4 construct: native, within intact phycobilisome purified from cells; mildly glutaraldehyde cross-linked
T4 sequence (B1XQM2 2-161): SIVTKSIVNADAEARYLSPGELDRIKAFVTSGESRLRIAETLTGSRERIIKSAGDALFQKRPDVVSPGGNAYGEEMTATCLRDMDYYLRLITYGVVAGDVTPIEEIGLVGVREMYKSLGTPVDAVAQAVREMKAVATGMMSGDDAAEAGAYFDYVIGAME
The following applies: covalent; native chromophore.

Experiment [5] concerns the target T5, ApcD (Synechococcus 7002) (Picosynechococcus sp. PCC 7002, UniProt O68966).
T5 construct: native, within intact phycobilisome purified from cells; mildly glutaraldehyde cross-linked; paired with ApcB in trimer A4
The following applies: covalent; native chromophore.

On to `CC=C1C(=Cc2[nH]c(C=C3N=C(C=C4NC(=O)C(CC)=C4C)C(C)=C3CCC(=O)O)c(CCC(=O)O)c2C)NC(=O)C1C` (centres unmarked) [phycocyanobilin], for which the “cryo-EM structure of intact phycobilisome, 3.5 Å” value in experiment [1] was “Y116 is located between αApcD and the bilin of ApcB^A4-II”; in experiment [2], “The bilins of ApcF (orange), ApcE (red), and ApcA (forest green) are shown”; in experiment [3] it was “The bilins of ApcF (orange), ApcE (red), and ApcA (forest green) are shown”; in experiment [4], “The bilins of ApcF (orange), ApcE (red), and ApcA (forest green) are shown”; in experiment [5], “Only the bilin of ApcD is shown with its ring-A through ring-D indicated”.

For the origin of these results see article PMC8448738, “Structural insight into the mechanism of energy transfer in cyanobacterial phycobilisomes” (Nature Communications, 2021).
